Laboratory results reported in the supplement of paper PMC10307832.

Legend:
Assay in all cases: relative viability (nuclei count vs DMSO), 5 days (fraction); higher = more cells survive
[1] = compound: C1=CC=C(C(=C1)C2=CC=C(C=C2)C3=CSC4=C3C(=C(C(=O)N4)C#N)O)O + Cc1nc(NC(=O)N2CCC[C@H]2C(N)=O)sc1-c1ccnc(C(C)(C)C(F)(F)F)c1 [Alpelisib] (partner 2 µM)
How it was run: (§1)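 Medians of duplicate plates are given as relative viability. That measure is the nuclei count in treated wells divided by the count in vehicle wells. Counts were taken on 4× images of lung cancer cell lines in 1536-well plates, 5 days after pin-tool dosing the day after seeding with one drug alone or a fixed anchor-drug dose plus five library-drug doses (not always all listed) in √10 steps.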

[2] = compound: CC1=CN2C(=O)C=C(N=C2C(=C1)C(C)NC3=CC=CC=C3)N4CCOCC4 [TGX 221] + CC(=O)Nc1cccc(-n2c(=O)n(C3CC3)c(=O)c3c(Nc4ccc(I)cc4F)n(C)c(=O)c(C)c32)c1 [Trametinib] (partner 0.02 µM)
How it was run: as §1

[3] = compound: C1=CC=C(C(=C1)C2=CC=C(C=C2)C3=CSC4=C3C(=C(C(=O)N4)C#N)O)O + CC1(C)CCC(c2ccc(Cl)cc2)=C(CN2CCN(c3ccc(C(=O)NS(=O)(=O)c4ccc(N[C@H](CCN5CCOCC5)CSc5ccccc5)c(S(=O)(=O)C(F)(F)F)c4)cc3)CC2)C1 [Navitoclax] (partner 0.5 µM)
How it was run: as §1

[4] = compound: CC1=CN2C(=O)C=C(N=C2C(=C1)C(C)NC3=CC=CC=C3)N4CCOCC4 [TGX 221] + O=C(c1cc(Cc2n[nH]c(=O)c3ccccc23)ccc1F)N1CCN(C(=O)C2CC2)CC1 [Olaparib] (partner 8 µM)
How it was run: as §1

Row | Cell Line | relative viability ([1]; first compound 0.08 µM) | relative viability ([1]; first compound 0.253 µM) | relative viability ([1]; first compound 0.8 µM) | relative viability ([1]; first compound 2.53 µM) | relative viability ([1]; first compound 8 µM) | relative viability ([2]; first compound 0.08 µM) | relative viability ([2]; first compound 0.253 µM) | relative viability ([2]; first compound 0.8 µM) | relative viability ([2]; first compound 2.53 µM) | relative viability ([2]; first compound 8 µM) | relative viability ([3]; first compound 0.08 µM) | relative viability ([3]; first compound 0.253 µM) | relative viability ([3]; first compound 0.8 µM) | relative viability ([3]; first compound 2.53 µM) | relative viability ([3]; first compound 8 µM) | relative viability ([4]; first compound 0.08 µM) | relative viability ([4]; first compound 0.253 µM) | relative viability ([4]; first compound 0.8 µM) | relative viability ([4]; first compound 2.53 µM) | relative viability ([4]; first compound 8 µM)
1 | EKVX | 0.786 | 0.995 | 0.838 | 0.953 | 0.851 | 0.3 | 0.322 | 0.291 | 0.273 | 0.304 | 0.897 | 1.13 | 1.03 | 0.922 | 0.903 | 0.75 | 0.758 | 0.792 | 0.691 | 0.709
2 | NCI-H322M | 0.814 | 0.901 | 0.958 | 0.835 | 0.703 | 0.47 | 0.488 | 0.508 | 0.504 | 0.5 | 1.35 | 1.24 | 1.03 | 1.32 | 1.09 | 0.699 | 0.701 | 0.876 | 0.716 | 0.681
3 | NCI-H520 | 0.602 | 0.767 | 1.03 | 0.87 | 0.861 | 0.521 | 0.591 | 0.744 | 0.597 | 0.505 | 1.08 | 1.15 | 1.2 | 1.11 | 0.891 | 0.329 | 0.256 | 0.262 | 0.22 | 0.247
4 | LC-2-ad | 0.803 | 0.943 | 1 | 1 | 0.965 | 0.846 | 0.906 | 0.927 | 0.885 | 0.858 | 0.464 | 0.382 | 0.687 | 0.421 | 0.361 | 0.732 | 0.69 | 0.832 | 0.745 | 0.73
5 | NCI-H596 | 0.397 | 0.541 | 0.489 | 0.497 | 0.447 | 0.654 | 0.807 | 0.82 | 0.908 | 0.774 | 0.791 | 1.32 | 0.955 | 0.951 | 0.787 | 0.662 | 0.675 | 0.746 | 0.744 | 0.572
6 | LCLC-97TM1 | 0.251 | 0.346 | 0.265 | 0.225 | 0.173 | 0.178 | 0.172 | 0.22 | 0.187 | 0.185 | 0.379 | 0.719 | 0.514 | 0.393 | 0.453 | 0.403 | 0.423 | 0.364 | 0.304 | 0.31
7 | NCI-H1437 | 0.713 | 1.16 | 0.994 | 1.09 | 0.883 | 0.462 | 0.448 | 0.437 | 0.38 | 0.415 | 1.06 | 1.16 | 1.18 | 1.13 | 0.881 | 0.649 | 0.589 | 0.678 | 0.603 | 0.632
8 | NCI-H1915 | 1.11 | 1.07 | 1.07 | 1.08 | 0.991 | 0.283 | 0.29 | 0.29 | 0.274 | 0.238 | 0.811 | 0.769 | 0.83 | 0.826 | 0.771 | 0.241 | 0.267 | 0.284 | 0.232 | 0.251
9 | NCI-H441 |  | 0.773 |  | 0.75 | 0.816 | 0.416 | 0.473 | 0.45 | 0.371 | 0.354 |  | 0.644 |  | 0.837 | 0.604 | 0.578 | 0.571 | 0.515 | 0.524 | 0.589
10 | SW 1573 | 0.726 | 0.974 | 0.758 | 0.624 | 0.583 | 0.518 | 0.429 | 0.567 | 0.382 | 0.442 | 0.965 | 0.902 | 0.901 | 0.976 | 0.784 | 0.48 | 0.422 | 0.511 | 0.406 | 0.479
11 | PC-3 [JPC-3] | 1.17 | 1.05 | 1.06 | 1.12 | 1.01 | 0.662 | 0.701 | 0.668 | 0.595 | 0.571 | 0.913 | 0.816 | 0.849 | 0.765 | 0.808 | 1.12 | 1.02 | 1.25 | 1.06 | 1.07
12 | 201T | 1.08 | 1.03 | 1.01 | 1.01 | 1.08 | 0.704 | 0.728 | 0.703 | 0.703 | 0.697 | 1.25 | 1.18 | 1.19 | 1.18 | 1.26 | 0.837 | 0.834 | 0.821 | 0.834 | 0.777
13 | LK-2 |  |  | 0.906 | 1 | 1.06 | 0.725 | 0.716 | 0.847 | 0.823 | 0.749 |  |  | 0.895 | 0.87 | 0.683 | 0.65 | 0.752 | 0.551 | 0.632 | 0.862
14 | NCI-H727 | 0.59 | 0.642 | 0.539 | 0.688 | 0.655 | 0.476 | 0.362 | 0.409 | 0.392 | 0.366 | 0.426 | 0.478 | 0.48 | 0.409 | 0.479 | 0.681 | 0.732 | 0.545 | 0.679 | 0.745
